13 molecules from patent US20260166159A1, “KRAS G12D DEGRADATION AGENT, AND PREPARATION METHOD AND USE THEREFOR” (LEADINGTAC PHARMACEUTICAL (SHAOXING) CO., LTD., priority 2022, published 2026) can be followed below.

Assay [1] addresses T1, Human KRAS G12D 6His-tagged (Homo sapiens, UniProt P01116, G12D).
T1 construct: purchased PerkinElmer
The assay is described as follows: KRAS-G12D/GTP binding assay (HTRF). The method in brief: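 HTRF kit format: 6His-tagged KRAS G12D incubated with compound (final 0.02-5000 nM, 0.5% DMSO), anti-6His Eu cryptate antibody and GTP Red reagent for 1 h at 25° C. 665/620 nm ratio versus control gave inhibition rates; IC50 by nonlinear fit.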

In the next assay the test system is phosphorylated ERK. Briefly: KRAS G12D-mediated phosphorylated ERK inhibition assay (AlphaLISA), A427. Format: cell-based. The note with it: Homo sapiens, A-427; A427 cells; class symbols; read-out: pERK (A427) IC50. The procedure: The relative amounts of phosphorylated ERK and total ERK in the samples were separately determined according to the test methods provided in the instructions of the AlphaLISA SureFire Ultra p-ERK 1/2 (Thr202/Tyr204) kit (PerkinElmer) and the AlphaLISA SureFire Ultra TotalERK 1/2 kit (PerkinElmer).
The experimental procedures for the assay of the phosphorylated ERK and total ERK were as follows: 10 μL of each sample was added to a 384-well plate (Greiner), and 5 μL of the prepared Acceptor Beads (PerkinElmer) mixed solution (containing 50× Acceptor Beads 615, Activation Buffer, and equal volumes of Reaction Buffer 1 and Reaction Buffer 2) was added to each well; and the plate was incubated at room temperature for 2 h. Then 5 μL of 1× Donor Beads (PerkinElmer) diluted with Dilution Buffer was added to each well, and the plate was incubated at room temperature overnight. After the incubation was completed, AlphaLISA signal values for the phosphorylated ERK and total ERK were separately measured on an EnVision microplate reader (PerkinElmer) in the AlphaScreen standard mode. The following formula was adopted: phosphorylated ERK correction value=phosphorylated ERK AlphaLISA signal value/total ERK AlphaLISA signal value. The relative ratio of the phosphorylated ERK for each sample was calculated. The percentage inhibition rates of the compounds on the phosphorylated ERK at each concentration were calculated by comparing the relative value of the phosphorylated ERK with that of the DMSO control well. Then non-linear curve fittings for logarithmic concentration-inhibition rate were performed by the GraphPad Prism 8 analysis software, and the IC50 values of the compounds on the inhibition of the phosphorylated ERK were obtained (Table 2).

Structures are written as SMILES.

T1 sequence (P01116 1-188 isoform P01116-2 G12D): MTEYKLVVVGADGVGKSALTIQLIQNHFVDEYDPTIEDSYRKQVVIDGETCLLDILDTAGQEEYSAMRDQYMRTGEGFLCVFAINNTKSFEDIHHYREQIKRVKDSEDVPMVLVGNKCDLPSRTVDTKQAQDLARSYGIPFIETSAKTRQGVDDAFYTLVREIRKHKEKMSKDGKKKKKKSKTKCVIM

As for `C#Cc1c(F)ccc2cc(O)cc(-c3ncc4c(N5CC6CCC(C5)N6)nc(OCC5(CN6CCN(CC7CCC8(CC7)CCN(C(=O)c7ccc(OC)c(N9CCC(=O)NC9=O)c7)CC8)CC6)CCC5)nc4c3F)c12` [Example 25, 1-(5-(9-((4-((1-(((4-(3,8-diazabicyclo[3.2.1]octan-3-yl)-7-(8-ethynyl-7-fluoro-3-hydroxynaphthalen-1-yl)-8-fluoropyrido[4,3-d]pyrimidin-2-yl)oxy)methyl)cyclobutyl)methyl)piperazin-1-yl)methyl)-3-azaspiro[5.5]undecane-3-carbonyl)-2-methoxyphenyl)dihydropyrimidine-2,4(1H,3H)-dione], the IC50 is not above 50 nM in assay [1] (class symbols) and 100 to 500 nM in the assay with phosphorylated ERK.

`C#Cc1c(F)ccc2cc(O)cc(-c3ncc4c(N5CC6CCC(C5)N6)nc(OCC5(CN6CCN(CC7CCC8(CC7)CCN(C(=O)c7ccc(Cl)c(N9CCC(=O)N(C)C9=O)c7)CC8)CC6)CC5)nc4c3F)c12` [Example 17, 1-(5-(9-((4-((1-(((4-(3,8-diazabicyclo[3.2.1]octan-3-yl)-7-(8-ethynyl-7-fluoro-3-hydroxynaphthalen-1-yl)-8-fluoropyrido[4,3-d]pyrimidin-2-yl)oxy)methyl)cyclopropyl)methyl)piperazin-1-yl)methyl)-3-azaspiro[5.5]undecane-3-carbonyl)-2-chlorophenyl)-3-methyldihydropyrimidine-2,4(1H,3H)-dione]: the IC50 (in assay [1] (class symbols); with phosphorylated ERK) was not above 50 nM each time.

On to `C#Cc1c(F)ccc2cc(O)cc(-c3ncc4c(N5CC6CCC(C5)N6)nc(OCC5(CN6CCN(CCCC7CCN(C(=O)c8ccc(OC)c(N9CCC(=O)NC9=O)c8)CC7)CC6)CC5)nc4c3F)c12` [Example 8, 1-(5-(4-(3-(4-((1-(((4-(3,8-diazabicyclo[3.2.1]octan-3-yl)-7-(8-ethynyl-7-fluoro-3-hydroxynaphthalen-1-yl)-8-fluoropyrido[4,3-d]pyrimidin-2-yl)oxy)methyl)cyclopropyl)methyl)piperazin-1-yl)propyl)piperidine-1-carbonyl)-2-methoxyphenyl)dihydropyrimidine-2,4(1H,3H)-dione], for which the IC50 (in assay [1] (class symbols); in the assay on phosphorylated ERK) was not above 50 nM in each case.

With `C#Cc1c(F)ccc2cc(O)cc(-c3ncc4c(N5CC6CCC(C5)N6)nc(OCC5(CN6CCN(CCCC7CCN(C(=O)c8ccc(Cl)c(N9CCC(=O)NC9=O)c8)CC7)CC6)CCC5)nc4c3F)c12` [Example 24, 1-(5-(4-(3-(4-((1-(((4-(3,8-diazabicyclo[3.2.1]octan-3-yl)-7-(8-ethynyl-7-fluoro-3-hydroxynaphthalen-1-yl)-8-fluoropyrido[4,3-d]pyrimidin-2-yl)oxy)methyl)cyclobutyl)methyl)piperazin-1-yl)propyl)piperidine-1-carbonyl)-2-chlorophenyl)dihydropyrimidine-2,4(1H,3H)-dione], the IC50 (in assay [1] (class symbols); in the assay with phosphorylated ERK) was not above 50 nM each time.

As for `C#Cc1c(F)ccc2cc(O)cc(-c3ncc4c(N5CC6CCC(C5)N6)nc(OCC5(CN6CCC(CCOCC7CCN(C(=O)c8ccc(Cl)c(N9CCC(=O)NC9=O)c8)CC7)CC6)CC5)nc4c3F)c12` [Example 10], the concentration for half-maximal inhibition (IC50) (in assay [1] (class symbols); in the assay with phosphorylated ERK) was not above 50 nM in each case.

As to `C#Cc1c(F)ccc2cc(O)cc(-c3ncc4c(N5CC6CCC(C5)N6)nc(OCC5(CN6CCC(COCC7CCN(C(=O)c8ccc(Cl)c(N9CCC(=O)NC9=O)c8)CC7)CC6)CC5)nc4c3F)c12` [Example 13, 1-(5-(4-(((1-((1-(((4-(3,8-diazabicyclo[3.2.1]octan-3-yl)-7-(8-ethynyl-7-fluoro-3-hydroxynaphthalen-1-yl)-8-fluoropyrido[4,3-d]pyrimidin-2-yl)oxy)methyl)cyclopropyl)methyl)piperidin-4-yl)methoxy)methyl)piperidine-1-carbonyl)-2-chlorophenyl)dihydropyrimidine-2,4(1H,3H)-dione], the IC50 (in assay [1] (class symbols); in the assay on phosphorylated ERK) was not above 50 nM each time.

As for `CCc1c(F)ccc2cc(O)cc(-c3ncc4c(N5CC6CCC(C5)N6)nc(OCC5(CN6CCN(CCCC7CCN(C(=O)c8ccc(Cl)c(N9CCC(=O)NC9=O)c8)CC7)CC6)CC5)nc4c3F)c12` [Example 22, 1-(5-(4-(3-(4-((1-(((4-(3,8-diazabicyclo[3.2.1]octan-3-yl)-7-(8-ethyl-7-fluoro-3-hydroxynaphthalen-1-yl)-8-fluoropyrido[4,3-d]pyrimidin-2-yl)oxy)methyl)cyclopropyl)methyl)piperazin-1-yl)propyl)piperidine-1-carbonyl)-2-chlorophenyl)dihydropyrimidine-2,4(1H,3H)-dione], the IC50 (in assay [1] (class symbols); with phosphorylated ERK) was not above 50 nM in each case.

Regarding `C#Cc1c(F)ccc2cc(O)cc(-c3ncc4c(N5CC6CCC(C5)N6)nc(OCC5(CN6CCN(CCC7CCN(C(=O)c8ccc(Cl)c(N9CCC(=O)NC9=O)c8)CC7)CC6)CC5)nc4c3F)c12` [Example 3, 1-(5-(4-(2-(4-((1-(((4-(3,8-diazabicyclo[3.2.1]octan-3-yl)-7-(8-ethynyl-7-fluoro-3-hydroxynaphthalen-1-yl)-8-fluoropyrido[4,3-d]pyrimidin-2-yl)oxy)methyl)cyclopropyl)methyl)piperazin-1-yl)ethyl)piperidine-1-carbonyl)-2-chlorophenyl)dihydropyrimidine-2,4(1H,3H)-dione], the IC50 in assay [1] (class symbols) was not above 50 nM; with phosphorylated ERK, 50 to 100 nM.

For the molecule `CCc1c(F)ccc2cc(O)cc(-c3ncc4c(N5CC6CCC(C5)N6)nc(OCC5(CN6CCN(CC7CCC8(CC7)CCN(C(=O)c7ccc(OC)c(N9CCC(=O)NC9=O)c7)CC8)CC6)CC5)nc4c3F)c12` [Example 15, 1-(5-(9-((4-((1-(((4-(3,8-diazabicyclo[3.2.1]octan-3-yl)-7-(8-ethyl-7-fluoro-3-hydroxynaphthalen-1-yl)-8-fluoropyrido[4,3-d]pyrimidin-2-yl)oxy)methyl)cyclopropyl)methyl)piperazin-1-yl)methyl)-3-azaspiro[5.5]undecane-3-carbonyl)-2-methoxyphenyl)dihydropyrimidine-2,4(1H,3H)-dione], the half-maximal inhibitory concentration (IC50) (in assay [1] (class symbols); with phosphorylated ERK) was not above 50 nM throughout.

`C#Cc1c(F)ccc2cc(O)cc(-c3ncc4c(N5CC6CCC(C5)N6)nc(OCC5(CN6CCN(CCCCC7CCN(C(=O)c8ccc(Cl)c(N9CCC(=O)NC9=O)c8)CC7)CC6)CC5)nc4c3F)c12` [Example 5, 1-(5-(4-(4-(4-((1-(((4-(3,8-diazabicyclo[3.2.1]octan-3-yl)-7-(8-ethynyl-7-fluoro-3-hydroxynaphthalen-1-yl)-8-fluoropyrido[4,3-d]pyrimidin-2-yl)oxy)methyl)cyclopropyl)methyl)piperazin-1-yl)butyl)piperidine-1-carbonyl)-2-chlorophenyl)dihydropyrimidine-2,4(1H,3H)-dione]: the IC50 (in assay [1] (class symbols); in the assay on phosphorylated ERK) was not above 50 nM each time.

In assay [1] (class symbols), `C#Cc1c(F)ccc2cc(O)cc(-c3ccc4c(N5CC6CCC(C5)N6)nc(OCC5(CN6CCN(CC7CCC8(CC7)CCN(C(=O)c7ccc(C)c(N9CCC(=O)NC9=O)c7)CC8)CC6)CC5)nc4c3F)c12` [Example 42, 1-(5-(9-((4-((1-(((4-(3,8-diazabicyclo[3.2.1]octan-3-yl)-7-(8-ethynyl-7-fluoro-3-hydroxynaphthalen-1-yl)-8-fluoroquinazolin-2-yl)oxy)methyl)cyclopropyl)methyl)piperazin-1-yl)methyl)-3-azaspiro[5.5]undecane-3-carbonyl)-2-methylphenyl)dihydropyrimidine-2,4(1H,3H)-dione] yielded an IC50 not above 50 nM.

Regarding `C#Cc1c(F)ccc2cc(O)cc(-c3ncc4c(N5CC6CCC(C5)N6)nc(OCC(C)CN5CCN(CC6CCC7(CC6)CCN(C(=O)c6ccc(OC)c(N8CCC(=O)NC8=O)c6)CC7)CC5)nc4c3F)c12` (centres unmarked) [Example 84, 1-(5-(9-((4-(3-((4-(3,8-diazabicyclo[3.2.1]octan-3-yl)-7-(8-ethynyl-7-fluoro-3-hydroxynaphthalen-1-yl)-8-fluoropyrido[4,3-d]pyrimidin-2-yl)oxy)-2-methylpropyl)piperazin-1-yl)methyl)-3-azaspiro[5.5]undecane-3-carbonyl)-2-methoxyphenyl)dihydropyrimidine-2,4(1H,3H)-dione], the IC50 in assay [1] (numeric values) came to 2.47 nM.

In turn, `C#Cc1cccc2cc(O)cc(-c3ncc4c(N5CC6CCC(C5)N6)nc(OCC5(CN6CCN(CC7CCC8(CC7)CCN(C(=O)c7ccc(Cl)c(N9CCC(=O)NC9=O)c7)CC8)CC6)CC5)nc4c3F)c12` [Example 57, 1-(5-(9-((4-((1-(((4-(3,8-diazabicyclo[3.2.1]octan-3-yl)-7-(8-ethynyl-3-hydroxynaphthalen-1-yl)-8-fluoropyrido[4,3-d]pyrimidin-2-yl)oxy)methyl)cyclopropyl)methyl)piperazin-1-yl)methyl)-3-azaspiro [5.5]undecane-3-carbonyl)-2-chlorophenyl)dihydropyrimidine-2,4(1H,3H)-dione] displayed an IC50 in assay [1] (class symbols) not above 50 nM.
